Experimental data from PMC11396667, “Design, Synthesis, and Anticancer and Antibacterial Activities of Quinoline-5-Sulfonamides” (Molecules, 2024).
≈ marks a conversion by molar mass, not a printed value.

Key:
[1] = tested on: Staphylococcus aureus ATCC 29213; experiment: MIC, microtitration broth method, SA; assay type: cell-based; settings: ATCC29213, 24 h, 37 °C, CaMH broth
Text: Since there is a general decrease in immunity during the treatment of oncological patients, i.e., patients are more susceptible to infectious diseases, it is advantageous if anticancer agents show antimicrobial properties at the same time. Therefore, the effects of the compounds were also investigated against Gram-positive bacteria. For this purpose, the susceptible collection strains of aerobic Staphylococcus aureus ATCC 29213 and facultatively aerobic Enterococcus faecalis ATCC 29212 and resistant clinical isolates of methicillin-resistant S. aureus (MRSA) SA 3202, SA 630 carrying the mecA gene, and vancomycin-resistant isolates of E. faecalis (VRE) 342B, 368, and 725B carrying the vanA gene were selected. Thus, the selection of the studied bacterial strains was adopted following the CLSI ([…]) international reference methodologies.
The in vitro antibacterial activity of the synthesized compounds was evaluated against representatives of multidrug-resistant bacteria, […] clinical isolates of methicillin-resistant S. aureus: clinical isolates of human origin, MRSA SA 3202, and MRSA SA 630 (National Institute of Public Health, Prague, Czech Republic), carrying the mecA gene. These two clinical isolates were classified as vancomycin-susceptible (but with a higher MIC of vancomycin equal to 2 μg/mL (VA2-MRSA). Vancomycin- and methicillin-susceptible S. aureus ATCC 29213 and vancomycin-susceptible Enterococcus faecalis ATCC 29212, obtained from the American Type Culture Collection, were used as the reference and quality control strains. Three vanA gene-carrying vancomycin-resistant isolates of E. faecalis (VRE 342B, VRE 368, VRE 725B) (Department of Infectious Diseases and Microbiology, Faculty of Veterinary Medicine, University of Veterinary Sciences Brno, Czech Republic) were provided by Oravcova et al..
The minimum inhibitory concentrations (MICs) were evaluated by the microtitration broth method according to the CLSI, with some modifications. The compounds were dissolved in DMSO (Sigma, St. Louis, MO, USA) to obtain a concentration of […] and diluted in a microtitration plate in an appropriate medium, i.e., Cation-Adjusted Mueller–Hinton Broth (CaMH, Oxoid, Basingstoke, UK) for staphylococci, and Brain Heart Infusion Broth (BHI, Oxoid) for enterococci to reach the final concentration of 256–0.125 µg/mL. Microtiter plates were inoculated with test microorganisms so that the final concentration of bacterial cells was 10^5. Ampicillin, oxacillin, and ciprofloxacin (Sigma) were used as reference drugs. A drug-free control and a sterility control were included. The plates were incubated for 24 h at 37 °C for staphylococci and enterococci. […] The experiments were repeated three times.

[2] = tested on: methicillin-resistant S. aureus SA 3202; experiment: MBC, agar aliquot subculture method, MRSA1; assay type: cell-based; settings: Staphylococcus aureus; 99.9% decrease in CFU, 24 h, 37 °C
Text: The activities of the individual derivatives were expressed as minimum inhibitory concentrations (MICs) and minimum bactericidal concentrations (MBCs) and are shown in Table 3 together with the values of the antibiotics used as standards for comparison. […] MBC values of bactericidal compounds are indicated in bold in Table 3.
For the above-mentioned strains/isolates, the agar aliquot subculture method was used as a test for bactericidal agents. After the MIC value determination, the inoculum was transferred to CaMH (Oxoid) for staphylococci, and BHI (Oxoid) for enterococci medium using a multipoint inoculator. The plates were incubated in a thermostat at 37 °C for 24 h. The lowest concentration of test compound at which ≤5 colonies were obtained was then evaluated as MBC, corresponding to a 99.9% decrease in CFU relative to the original inoculum.

[3] = tested on: S. aureus ATCC 29213; experiment: MTT assay of bacterial respiratory activity; assay type: cell-based, Staphylococcus aureus; settings: for S. aureus Respiration Inhibition: 24 h, at the lowest multiple of MIC giving at least 70% inhibition; for Conc.: lowest multiple of MIC with at least 70% inhibition of respiratory activity / Conc.: the same concentration as multiple of MBC: S. aureus ATCC 29213
Text: The MTT assay can be used to assess cell growth by measuring respiration. Bacterial cell respiratory activity (which is ultimately reflected in their viability) of less than 70% after exposure to the MIC values for each test compound is considered as a positive result for this test. This low level of cellular oxidative metabolism indicates inhibition of cell growth by inhibition of respiration. The lowest multiples of the MIC values by which inhibition of S. aureus ATCC 29213 viability [%] greater than 70% was achieved are shown in Table 4. […] Therefore, the antibacterial activity of the discussed compounds cannot be explained solely on the basis of respiration inhibition, so it is very difficult to draw a conclusion regarding the actual mechanism of action, since 8-HQs are multi-target agents, i.e., they affect several different targets at once (as discussed in the section dedicated to anticancer activity), which subsequently leads to the death of the treated resistant microorganisms.
Compounds were prepared as previously stated and diluted in CaMH broth for S. aureus to achieve the desired final concentrations. S. aureus bacterial suspension in sterile distilled water at 0.5 McFarland was diluted 1:3. Inocula were added to each well by multi-inoculator. Diluted mycobacteria in broth free from inhibiting compounds were used as the growth control. All compounds were prepared in duplicate. Plates were incubated at 37 °C for 24 h for S. aureus. After the incubation period, 10% well volume of MTT (3-(4,5-dimethylthiazol-2-yl)-2,5-diphenyltetrazolium bromide) reagent (Sigma) was mixed into each well and incubated at 37 °C 1 h for S. aureus. Then, 100 µL of 17% sodium dodecyl sulphate in 40% dimethylformamide was added to each well. The plates were read at 570 nm. The absorbance readings from the cells grown in the presence of the tested compounds were compared with uninhibited cell growth to determine the relative percent inhibition. The percent inhibition was determined through MTT assay. The percent viability is calculated through the comparison of a measured value and that of the uninhibited control: % viability = OD570E/OD570P × 100, where OD570E is the reading from the compound-exposed cells, while OD570P is the reading from the uninhibited cells (positive control). Cytotoxic potential is determined by a percent viability of <70% [81, 82].

| MIC [1] [µM] | Conc.: lowest multiple of MIC with at least 70% inhibition of respiratory activity [3] | SMILES | MBC [2] [µM] | S. aureus Respiration Inhibition [3] [%] | Conc.: the same concentration as multiple of MBC [3] |
| --- | --- | --- | --- | --- | --- |
| 45.2 (≈ 16 µg/mL) | 1× MIC (1× MBC) | C#CCOc1ccccc1NS(=O)(=O)c1ccc(O)c2ncccc12 [3f, 8-Hydroxy-N-[2-(prop-2-yn-1-yloxy)phenyl]quinoline-5-sulfonamide] | 90.4 (≈ 32 µg/mL) | 81.6 | 1× MIC (1× MBC) |
| 45.2 (≈ 16 µg/mL) | 1× MIC (1× MBC) | C#CCOc1cccc(NS(=O)(=O)c2ccc(O)c3ncccc23)c1 [3e, 8-Hydroxy-N-[3-(prop-2-yn-1-yloxy)phenyl]quinoline-5-sulfonamide] | 90.4 (≈ 32 µg/mL) | 73.7 | 1× MIC (1× MBC) |
| 45.2 (≈ 16 µg/mL) | 1× MIC (1× MBC) | C#CCOc1ccc(NS(=O)(=O)c2ccc(O)c3ncccc23)cc1 [3d, 8-Hydroxy-N-[4-(prop-2-yn-1-yloxy)phenyl]quinoline-5-sulfonamide] | 45.2 (≈ 16 µg/mL) | 73.0 | 1× MIC (1× MBC) |
| 122 (≈ 32 µg/mL) | 1× MIC (1× MBC) | C#CCNS(=O)(=O)c1ccc(O)c2ncccc12 [3a, 8-Hydroxy-N-(prop-2-yn-1-yl)quinoline-5-sulfonamide] | 122 (≈ 32 µg/mL) | 92.5 | 1× MIC (1× MBC) |
| 55.2 (≈ 16 µg/mL) | 2× MIC (2× MBC) | C#CC(C)(C)NS(=O)(=O)c1ccc(O)c2ncccc12 [3b, 8-Hydroxy-N-(1,1-dimethylprop-2-yn-1-yl)quinoline-5-sulfonamide] | 110 (≈ 31.9 µg/mL) | 94.4 | 2× MIC (2× MBC) |
| 29 (≈ 8.01 µg/mL) | 2× MIC (2× MBC) | C#CCN(C)S(=O)(=O)c1ccc(O)c2ncccc12 [3c, 8-Hydroxy-N-methyl-N-(prop-2-yn-1-yl)quinoline-5-sulfonamide] | 29 (≈ 8.01 µg/mL) | 95.2 | 2× MIC (2× MBC) |
